Measurements published in article PMC9863409, “Combining the In Silico and In Vitro Assays to Identify Strobilanthes cusia Kuntze Bioactives against Penicillin-Resistant Streptococcus pneumoniae” (Pharmaceuticals, 2023).
In brackets after ≈: the same amount, converted by molar mass.

These compounds were tested against T1, SP_2146 (alpha-fucosidase) (Streptococcus pneumoniae, UniProt A0A0H2US78) (assay: SPR (Biacore 8K, CM5 chip, immobilized protein, steady-state affinity)).
T1 construct: recombinant from PRSP F3983 genomic DNA, pET-28a (+) with N-terminal 6 × His tag
T1 sequence (A0A0H2US78 entry or part of it): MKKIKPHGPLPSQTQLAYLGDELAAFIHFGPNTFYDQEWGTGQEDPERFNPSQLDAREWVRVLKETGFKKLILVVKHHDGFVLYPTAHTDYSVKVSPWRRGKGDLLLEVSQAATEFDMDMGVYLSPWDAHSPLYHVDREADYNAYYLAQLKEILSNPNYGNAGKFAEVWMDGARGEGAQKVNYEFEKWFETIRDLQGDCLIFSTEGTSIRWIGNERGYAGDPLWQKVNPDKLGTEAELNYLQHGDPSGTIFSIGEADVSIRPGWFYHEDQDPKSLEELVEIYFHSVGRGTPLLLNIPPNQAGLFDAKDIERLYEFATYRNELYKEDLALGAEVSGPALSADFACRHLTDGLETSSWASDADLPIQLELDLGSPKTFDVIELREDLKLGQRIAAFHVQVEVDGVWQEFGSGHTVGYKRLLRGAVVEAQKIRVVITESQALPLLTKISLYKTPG
Assay type: binding
In the case of `O=C1c2ccccc2-n2c1nc1ccccc1c2=O` [Tryptanthrin, Indolo(2,1-b)quinazoline-6,12-dione], the Kd is reported as 8.82 µM.

These compounds were tested on T2, Streptococcus pneumoniae PRSP F3983 (assay: microbe, parasite or virus in culture).
T2 construct: F3983 (penicillin-resistant)
Set-up: MIC test of isolated compounds on penicillin-resistant Streptococcus pneumoniae F3983
Excerpt: 2.4.2. MIC Tests for the Isolated 23 Chemical Compounds on the PRSP F3983 The following supporting information can be downloaded at: https://www.mdpi.com/article/10.3390/ph16010105/s1; Table S1: Proteome_data sheet; Table S2: UPLC-UV-ESI-Q-TOF/MS analysis of S. cusia leaves; Table S3: NMR of 23 isolated compounds and their MICs against PRSP [69, 70, 71, 72, 73, 74, 75, 76, 77, 78, 79, 80, 81, 82, 83, 84, 85, 86, 87, 88, 89, 90, 91]; Table S4: Reverse-docking_active-pockets; Table S5: Reverse-docking_results_Tryptanthrin; Table S6: LMW-Kinetics-affinity_Tryptanthrin; Table S7: Primers and sequences of bgaA, StrH, SP_2141 and SP_2146 of F3983; Table S8: A scheme of Preparation of Isolated Compounds from S. cusia leaves
In the case of `CC(=O)C=CC1=C(C)CC(O)CC1(C)C` (single isomer, unassigned; (-)) [compound 9, (-)-3-hydroxy-β-ionone], the MIC is reported as over 800 µg/mL.
`CC(=O)/C=C/[C@H]1C(C)=C[C@H](O)CC1(C)C` [compound 3, (3R,6R,7E)-3-hydroxy-4,7-megastigmadien-9-one] was tested, and the MIC was 400 µg/mL (≈ 1920 µM).
For `O=C1Cc2ccccc2N1` [compound 4, 1,3-dihydro-2H-indol-2-one], the MIC was 400 µg/mL (≈ 3000 µM).
Work on `O=C(O)c1ccc(C(=O)O)[nH]1` [compound 5, 1H-pyrrole-2,5-diacarboxylic acid] yielded an MIC of 200 µg/mL (≈ 1290 µM).
With `CCCCC(CC)COC(=O)c1ccccc1C(=O)OCC(CC)CCCC` (stereo not shown) [compound 6, bis(2-ethylhexyl) benzene-1,2-dicarboxylate] the MIC was over 800 µg/mL.
With `CC(C)COC(=O)c1ccccc1C(=O)OCC(C)C` [compound 7, phthalic acid isodibutyl ester] the MIC was over 800 µg/mL.
Work on `COC(=O)c1ccccc1NC(=O)c1c[nH]c2ccccc12` [compound 8, cephalandole B] yielded an MIC of over 800 µg/mL.
`COc1cc(C(=O)O)ccc1O` [compound 10, 4-hydroxy-5-methoxy-benzoic acid] showed an MIC of over 800 µg/mL.
`CC(=O)C=CC12OC1(C)CC(O)CC2(C)C` (stereo not drawn) [compound 11, 3β-hydroxy-5α,6α-epoxy-7-megastigmen-9-one] gave an MIC of 400 µg/mL (≈ 1780 µM).
For `CC1(C)C[C@H](O)C[C@@]2(C)OC(=O)C=C12` [compound 12, Calendin], the MIC was over 800 µg/mL.
`O=c1c2ccccc2ncn1-c1ccccc1O` [compound 13, 3-(2'-hydroxyphenyl)-4(3H)-quinazolinone] gave an MIC of 400 µg/mL (≈ 1680 µM).
`O=Cc1c[nH]c2ccccc12` [compound 14, 1H-indole-3-carboxadehyde] was tested, and the MIC was over 800 µg/mL.
Work on `COc1c(O)cc2oc(-c3ccc(O)cc3)cc(=O)c2c1O` [compound 15, hispidulin] yielded an MIC of 200 µg/mL (≈ 666 µM).
Work on `O=C1Nc2ccccc2OC1O` (stereo not shown) [compound 16, 2-hydroxy-(2H)-1,4-benzoxazin-3(4H)-one] yielded an MIC of over 800 µg/mL.
For `CC(O)C(=O)Nc1ccccc1O` (stereo not shown) [compound 17, 2-hydroxy-N-(2-hydroxyphenyl)propionamide], the MIC was over 800 µg/mL.
`CC(=O)c1ccc(O)cc1` [compound 19, p-hydroxyacetophenone] gave an MIC of 200 µg/mL (≈ 1470 µM).
`O=c1c2ccccc2nc2n1CCC2` [compound 20, deoxyvasicinone] was tested, and the MIC was over 800 µg/mL.
Work on `NC(=O)c1cccnc1` [compound 21, Nicotinamide] yielded an MIC of over 800 µg/mL.
`CCCCCCCC/C=C\CCCCCCCC(N)=O` [compound 23, 9(Z)-octadece-nameid] gave an MIC of over 800 µg/mL.

Each compound was assayed against StrH (exo-beta-D-N-acetylglucosaminidase) (Streptococcus pneumoniae, UniProt P49610) (assay: SPR (Biacore 8K, CM5 chip, immobilized protein, steady-state affinity)).
Chain of StrH (exo-beta-D-N-acetylglucosaminidase) (P49610 626-1064): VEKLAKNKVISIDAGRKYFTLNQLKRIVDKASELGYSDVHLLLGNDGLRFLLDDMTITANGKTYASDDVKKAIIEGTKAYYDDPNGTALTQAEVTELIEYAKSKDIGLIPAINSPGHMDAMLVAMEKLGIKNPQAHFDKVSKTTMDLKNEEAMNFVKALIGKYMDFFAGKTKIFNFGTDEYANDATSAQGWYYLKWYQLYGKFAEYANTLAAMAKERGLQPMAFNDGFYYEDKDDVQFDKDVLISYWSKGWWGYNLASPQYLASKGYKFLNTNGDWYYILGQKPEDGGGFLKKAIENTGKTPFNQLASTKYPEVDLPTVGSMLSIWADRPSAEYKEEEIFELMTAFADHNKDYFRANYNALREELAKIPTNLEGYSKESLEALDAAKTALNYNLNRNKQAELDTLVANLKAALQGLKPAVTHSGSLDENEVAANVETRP
Assay type: binding
`O=C1c2ccccc2-n2c1nc1ccccc1c2=O` [Tryptanthrin, Indolo(2,1-b)quinazoline-6,12-dione] showed a Kd of 7.16 µM.

What follows are compounds tested against T3, SP_2141 (beta-Hexosaminidase) (Streptococcus pneumoniae, UniProt A0A0H2US73) in the same assay as above.
T3 construct: recombinant from PRSP F3983 genomic DNA, pET-28a (+) with N-terminal 6 × His tag
T3 sequence (A0A0H2US73 entry or part of it): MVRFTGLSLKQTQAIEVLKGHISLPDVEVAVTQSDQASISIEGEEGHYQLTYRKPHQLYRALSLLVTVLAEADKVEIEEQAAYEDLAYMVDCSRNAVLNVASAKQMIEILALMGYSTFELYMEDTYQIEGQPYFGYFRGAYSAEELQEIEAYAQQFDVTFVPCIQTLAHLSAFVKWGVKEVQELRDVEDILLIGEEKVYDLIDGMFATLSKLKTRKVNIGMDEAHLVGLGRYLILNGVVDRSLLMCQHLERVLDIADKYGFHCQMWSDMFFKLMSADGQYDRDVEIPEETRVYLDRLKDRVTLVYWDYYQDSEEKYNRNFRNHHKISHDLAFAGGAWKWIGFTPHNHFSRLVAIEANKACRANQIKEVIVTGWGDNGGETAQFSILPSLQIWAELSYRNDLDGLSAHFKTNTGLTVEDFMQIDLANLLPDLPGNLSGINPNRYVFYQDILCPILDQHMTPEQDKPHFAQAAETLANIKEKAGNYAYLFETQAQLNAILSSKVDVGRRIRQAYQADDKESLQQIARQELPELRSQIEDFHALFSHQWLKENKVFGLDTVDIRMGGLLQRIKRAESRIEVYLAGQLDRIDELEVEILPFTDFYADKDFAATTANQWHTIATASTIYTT
Assay type: binding
In the case of `O=C1c2ccccc2-n2c1nc1ccccc1c2=O` [Tryptanthrin, Indolo(2,1-b)quinazoline-6,12-dione], the Kd is reported as 6.43 µM.
